Assay results taken from patent US8653023B1, “Dual beneficial effect of dopamine enhancing and neuroprotective actions of PKC delta inhibitors for treatment of Parkinson's disease” (Iowa State University Research Foundation, Inc., priority 2006, dated 2014).

Assays:
[1] = tested on: tyrosine hydroxylase (TH); test: TH phosphorylation in N27 cells (Western blot, immunofluorescence); assay type: cell-based, rat
Procedure: (§1) PC12 cells, differentiated N27 dopaminergic cells and primary mesencephalic neurons were exposed to 1-10 μM rottlerin for the duration of the experiment. DMSO (0.01%) was used as vehicle control. PKCδ-DN- and Lac Z-expressing N27 cells were only treated with 0.01% DMSO. […] Untreated or vehicle treated cells were used as control samples.
(§2) Cell and brain lysates containing equal amounts of protein were loaded in each lane and separated on a 10-12% SDS-PAGE gel as described previously (Kaul et al., 2003). After the separation, proteins were transferred to nitrocellulose membrane, and nonspecific binding sites were blocked by treating with 5% nonfat dry milk powder. The membranes were then treated with primary antibodies directed against PKCδ (rabbit polyclonal or mouse monoclonal, 1:2000 dilution), TH (rabbit polyclonal or mouse monoclonal, 1:1000), phospho TH-ser40 (rabbit polyclonal, 1:1000), phospho TH-ser31 TH (rabbit polyclonal, 1:1000), or PP2A (mouse monoclonal, 1:1000). The primary antibody treatments were followed by treatment with secondary HRP-conjugated anti-rabbit or anti-mouse IgG (1:2000) for 1 hr at RT. Secondary antibody-bound proteins were detected using Amersham's ECL chemiluminescence kit. To confirm equal protein loading, blots were reprobed with a β-actin antibody (1:5000 dilution). Western blot images were captured with a Kodak 2000 MM imaging system and data were analyzed using 1D Kodak imaging analysis software.
Immunostaining of PKCδ, TH, Ser40 P-TH and Ser31 P-TH was performed in PC12, N27 and primary mesencephalic neurons. Cells were grown on poly-L-Lysine-coated glass cover slips. After treatment, the cells were fixed with 4% paraformaldehyde and processed for immunohistochemical staining. First, non-specific sites were blocked with 5% normal goat serum containing 0.4% BSA and 0.2% Triton-X 100 in PBS for 20 min. Cells were then incubated with antibodies directed against PKCδ (1:500 dilution), TH (1:500 dilution), and P-THSer40 (1:500 dilution) overnight at 4° C. followed by incubation with either Alexa 488-conjugated (green, 1:1000) or Cy3-conjugated (red, 1:1000) secondary antibody for 1 hr at RT. Secondary antibody treatments were followed by incubation with Hoechst 33342 (10 μg/ml) for 3 min at room temperature to stain the nucleus. Then the coverslips containing stained cells were washed with PBS, mounted on a slide, and viewed under a Nikon inverted fluorescence microscope (Model TE-2000U); images were captured with a SPOT digital camera (Diagnostic Instruments, Sterling Heights, Mich.).

[2] = tested on: N27 cells; test: Cellular DA and DOPAC levels in N27 cells (HPLC-EC); assay type: cell-based, rat; conditions: siRNA-transfected N27 cells
Procedure: as §1
DA and DOPAC levels in PC12, N27 cells and in brain striatal tissues were determined by high-performance liquid chromatography with electrochemical detection (HPLC-EC); samples were prepared as described previously (Kitazawa et al., 2001). The DA and DOPAC levels were measured as pg/mg protein and expressed as percent of control.

[3] = tested on: PKCδ; test: PKCδ expression in siRNA-transfected N27 cells (Western blot); assay type: cell-based, rat; conditions: vs siRNA-NS
Procedure: Small interfering RNAs (siRNAs) were prepared by an in vitro transcription method as described previously (Yang et al., 2004). Cy-3 labeling of siRNA and transfections were carried out as described in a recent publication (Yang et al., 2004). We used the siRNA PKCδ-4 and non-specific siRNA (siRNA-NS) for this study.
as §2, with “To confirm equal protein loading, blots were reprobed with a β-actin antibody (1:5000 dilution).” left out

[4] = tested on: MPTP-treated C57 black mice; test: MPTP-induced striatal dopamine depletion (HPLC-EC); assay type: in vivo; conditions: MPTP 30 mg/kg for 5 days alone
Procedure: (§3) Six to 8-week-old […] mice weighing 30 g were housed in standard conditions: constant temperature (22±1° C.), humidity (relative, 30%) and a 12-h light/dark cycle, and were allowed free access to food and water. The animals and protocol procedures were approved and supervised by the Committee on Animal Care (COAC) at the Iowa State University. Rottlerin was dissolved in 1% dimethyl sulfoxide (DMSO) and was administered intraperitoneally at various doses. An equal volume of DMSO was given to controls. Rottlerin and DMSO administrations were started 24 h before the injections of the MPTP and continued for 5 days in the MPTP model. In the chronic regimens of MPTP administration, MPTP in phosphate-buffered saline (PBS) was injected intraperitoneally at doses of 30 mg/kg, once a day. Mice were sacrificed 2 days after the MPTP injections, and the striata were dissected for catecholamine analysis. Additionally, rottlerin alone (0.3-20 mg/kg) was administered via intraperitoneally or orally and then brain tissues were subjected to neurochemical analyses (FIG. 8). The mesencephalons were fixed in 4% paraformaldehyde for 5 days for tyrosine hydroxylase (TH) immunostaining.
DA and DOPAC levels in brain striatal tissues were determined by high-performance liquid chromatography with electrochemical detection (HPLC-EC); samples were prepared as described previously (Kitazawa, Anantharam et al. 2001). Briefly, neurotransmitters were extracted from samples using 0.1M perchloric acid containing 0.05% Na2EDTA and 0.1% Na2S2O5. The extracts were filtered in 0.22 micron spin tubes and 20 μl of the samples was loaded for analysis. DA and DOPAC were separated isocratically by a reversed-phase column with a flow rate of 0.7 ml/min. An HPLC system (ESA Inc., Bedford, Mass.) with an ESA automatic sampler (model 542) was used for these experiments. The electrochemical detection (EC) system consisted of an ESA coulochem model 5100A with a microanalysis cell model 5014A and a guard cell model 5020 (ESA Inc., Bedford, Mass.). The DA and DOPAC levels were measured as pg/mg protein and expressed as percent of control.

[5] = tested on: MPTP-treated C57 black mice; test: Locomotor activity of MPTP-treated mice (VersaMax); assay type: in vivo; conditions: MPTP treatment alone, 1 day after treatment, 20-min session
Text: Behavioral data were collected using VersaMax Animal Activity Monitors (AccuScan Model RXYZCM-16, Columbus, Ohio). Each chamber was 40×40×30.5 cm^3, made of clear Plexiglas and covered with a Plexiglas lid with air-holes. Infrared monitoring sensors were located every 2.54 cm along the perimeter (16 infrared beams along each side) and 2.5 cm above the floor. Two additional sets of 16 sensors were located 8.0 cm above the floor on opposite sides. Data were collected and analyzed by a VersaMax Analyzer (AccuScan Model CDA-8, Columbus, Ohio) which in turn sent information to an IBM computer where it was stored for future analyses. Locomotor activity was presented as horizontal movement and vertical movement. All data are expressed as percent of the vehicle-treated control group (mean 6 SEM) and were obtained 1 day after MPTP or vehicle treatment in a 20-min test session.

[6] = tested on: MPTP-treated C57 black mice; test: TH+ neuron count in substantia nigra pars compacta of MPTP mice (stereology); assay type: in vivo; conditions: MPTP 30 mg/kg for 5 continuous days
Procedure: as §3
Brains removed following cervical dislocation were post-fixed in paraformaldehyde and used for TH immunolabelling and stereological studies. Fixed brains were cut into 30-μm sections and collected in cryoprotectant. Sections were rinsed in PBS at room temperature before immunostaining, then incubated with a anti-TH antibody as described (Thiruchelvam, McCormack et al. 2003; Thiruchelvam, Powers et al. 2004). The total number of TH^+ and TH Nissl-stained neurons in the SNpc were counted using the optical fractionator and previously described counting criteria (Thiruchelvam, McCormack et al. 2003; Thiruchelvam, Powers et al. 2004). After delineation of the region at low magnification (4× objective), every fourth section from the entire substantia nigra was sampled at higher magnification (100× objective) using StereoImager (Microbrightfield, Vt.).

[7] = tested on: primary mesencephalic dopaminergic neuronal cells; assay type: cell-based, mice; conditions: 10 μM MPP+ for 48 hrs
Procedure: Primary mesencephalic neuronal cultures were prepared from the ventral mesencephalon of gestational 16-18-day-old mice embryos as described previously (Yang et al., 2004). Mesencephalic tissues were dissected and maintained in ice-cold Ca^2+-free HESS and then dissociated in HESS solution containing trypsin-EDTA (0.25%) for 20 min at 37° C. The dissociated cells were then plated at equal density (0.5×10^6 cells) in 30-mm-diameter tissue culture wells precoated with poly-D-lysine (1 mg/ml). Cultures were maintained in a chemically defined medium consisting of neurobasal medium fortified with B-27 supplements, L-glutamine (500 μM), penicillin (100 IU/ml), and streptomycin (100 μg/ml) (Life Technologies). The cells were maintained in a humidified CO2 incubator (5% CO2, 37° C.) for 24 hr and then treated with cytosine arabinoside (10 μM) for 24 hr to inhibit glial cell proliferation. Half of the culture medium was replaced every 2 days. Approximately 6-7-day-old cultures were used for experiments. […]
After treatment, the primary mesencephalic neurons were fixed with 4% paraformaldehyde and processed for immunocytotochemical staining. […] Then the coverslips containing stained cells were washed with PBS, mounted on a slide, and viewed under a Nikon inverted fluorescence microscope (Model TE-2000U); images were captured with a SPOT digital camera (Diagnostic Instruments, Sterling Heights, Mich.).
We used Metamorph software (Universal Imaging, Version 5.0) for measurement of TH^+ cells and neuronal processes in primary neurons from each coverslip. For measurement of TH cell count, the images were first thresholded, and then neuronal count and volume were measured using the Integrated Morphometry Analysis (IMA) function. The data were logged to an Excel spreadsheet with defined row and column positions and then analyzed. […] The data were exported to an Excel spreadsheet and analyzed. TH^+ neurons and their processes were counted in at least six individual cultures for each treatment. This method is a modified version of methodology recently used for quantification of neuronal processes.

[8] = tested on: dopaminergic N27 cells; conditions: cited from earlier work
[9] = tested on: tyrosine hydroxylase (TH); test: TH activity (DOPA levels after NSD-1015) in N27 cells; assay type: cell-based, rat; conditions: okadaic acid 2 μM for 2 hr
Procedure: Plasmid pPKCδ^K376R-V5 encodes the loss of function PKCδ-V5 epitope tagged mutant protein; K376R refers to the mutation of the lysine residue at position 376 to arginine in the catalytic site resulting in inactivation of the kinase. Plasmid pLacZ-V5 encodes the β-galactosidase protein alone with a V5-epitope and is used as a vector control. N27 cells stably expressing PKCδ^K376R-V5 (herein referred to as PKCδ-DN cells) and LacZ alone-expressing cells (LacZ cells) were cultured as described previously (Kitazawa et al., 2005). PKCδ-DN or LacZ expressing N27 cells were identified by immunostaining of the C-terminal V5 epitope on expressed proteins and were differentiated with cAMP analogs (e.g. dibutyral cAMP) prior to experiments. PKCδ-DN and LacZ were also transiently expressed in mouse primary mesencephalic neurons using an AMAXA® Nucleofector™ kit (AMAXA GmbH, Germany). As described above, primary mesencephalic neurons were prepared from the midbrain of 16-18-day-old mice embryos. After digestion with trypsin-EDTA-HBSS, the primary neurons were homogenously resuspended with transfection buffer provided with the kit to a final concentration of 4-5×10^6 neurons/100 μl and mixed with 1 μg plasmid DNA encoding either PKCδ-DN-V5 or LacZ-V5. […] Transfection efficiency was >75% as determined by immunostaining of V5-expression. […]

[10] = N27 cells, okadaic acid 2 μM for 2 hr

Molecule: PKCδ siRNA: siRNA PKCδ-4 directed against PKCδ; probably siRNA-d-4, SEQ ID NO:7 and 8 (chain 1 AACTGTTTGTGAATTTGCCTTCCTGTCTC; chain 2 AAAAGGCAAATTCACAAACAGCCTGTCTC; listed as DNA, chemistry not given here)
- TH-Ser40 (60 kDa band) densitometry, increase versus siRNA-NS ([1]; siRNA-transfected N27 cells): 2 fold
- total TH levels versus siRNA-NS ([1]; siRNA-transfected N27 cells): similar
- increase in DOPAC versus siRNA-NS [2]: 71%
- increase in the DA level versus siRNA-NS [2]: 45%
- reduction in PKCδ expression [3]: 55%

Molecule: CN1CC=C(c2ccccc2)CC1 [MPTP, 1-methyl-4-phenyl-1,2,3,6-tetrahydropyridine]
- dopamine level in striatum [4]: 14.49±3.77 pg DA/mg tissue weight
- reduction of striatal dopamine versus vehicle [4]: −94%
- locomotor activity compared to control group [5]: 55.17%
- cell loss in SNpc as compared to controls [6]: 40%

Molecule: C[n+]1ccc(-c2ccccc2)cc1 [MPP^+, 1-methyl-4-phenylpyridinium]
- cell death and loss of neurites length of TH+ neurons [7]: 90%

Molecule: O=c1c(-c2ccc(O)cc2)coc2cc(O)cc(O)c12 [genistein]
- H2O2 and MPP+-induced apoptotic cell death (genistein: also PKCδ cleavage, kinase activation) [8]: dramatically inhibited

Molecule: C=C1[C@@H](O)[C@@H]2O[C@]3(CC[C@H](/C=C/[C@@H](C)[C@@H]4CC(C)=C[C@@]5(O[C@H](C[C@@](C)(O)C(=O)O)CC[C@H]5O)O4)O3)CC[C@H]2O[C@@H]1[C@@H](O)C[C@H](C)[C@H]1O[C@@]2(CCCCO2)CC[C@H]1C [okadaic acid]
- baseline THser40 phosphorylation levels versus untreated cells [1, 10]: increase
- levels of total TH versus untreated cells [1, 10]: similar
- DOPA levels (TH activity) [9]: 1434±212.6 pg/10^6 cells/hr
